From PubChem BioAssay (NCI) come the findings set out here.

Common to all, as to assay: inhibition of tumour cell growth, NCI panel, 48 h
In test [1] the test system is 786-0 renal.
The subject of test [2] is CCRF-CEM leukemia.
The test system of test [3] is DU-145 prostate.
For test [4], the system named is EKVX NSCLC.
For test [5], the system named is HCT-15 colon.
In test [6] the test system is HOP-92 NSCLC.
In test [7] the test system is IGROV1 ovarian.
Test [8] has as its system MDA-N.
For test [9], the system named is MOLT-4 leukemia.
Test [10] deals with NCI-H226 lung.
The subject of test [11] is SNB-19 CNS.
In test [12] the test system is UO-31 renal.
In test [13] the test system is NCI-H23 lung.

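Protocol summary: plate cells (96-well), add compound at 5 concentrations, incubate 48 h, interpolate endpoints linearly. TGI: concentration producing complete growth inhibition.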

For `COc1ccc2oc(=N)c(C(N)=S)cc2c1`, the TGI in test [1] was greater than 100 µM; in test [2], greater than 100 µM; in test [3], greater than 100 µM; in test [4] it was 95.7 µM; in [5], 36.7 µM; in [6] it was 50.7 µM. Further, the TGI in test [7] was greater than 100 µM; in test [8] it was 67.5 µM; in [9], greater than 100 µM; in test [10] it was 44.3 µM; in test [11] it was greater than 100 µM; in [12], 48.6 µM.

As for `COC(=O)n1c(=O)nc2c3c(ncn21)Oc1c(c(-c2ccccc2)nn1-c1ccccc1)C3c1ccc(Cl)cc1` (stereo not given), the TGI in [1] was determined as 2.81 µM; in test [2], 3.27 µM; in test [3], 2.98 µM; in [5], 2.95 µM; in test [6], 3.39 µM; in test [8] it was 3.01 µM. For the same molecule, the TGI turned out to be 3.42 µM in test [10], 3.96 µM in test [13], 3.13 µM in [11] and 3.28 µM in [12].

Consider `COc1ccc(NS(=O)CCc2ccccc2)cc1` (stereo not given), for which the TGI in test [1], in [2], in test [3], in test [4], in [5] and in [7] was greater than 100 µM throughout. The TGI in test [8], in [9], in test [10], in test [13], in test [11] and in test [12] was greater than 100 µM in each case.

Turning to `C/C(C=O)=N\Nc1cc(C)c2ccccc2n1`, the TGI in test [1] is 28.7 µM; in [2], 29.3 µM; in test [3], 29.9 µM; in [4] it was 33.7 µM; in test [5] it was 26.3 µM; in test [6] it was 29.6 µM. Also, the TGI in test [7] worked out at 32.1 µM; in test [9] it was 36.8 µM; in [13], 25.9 µM; in [11], 52 µM; in [12] it was 28.1 µM.

With `COc1ccc(/C=C/C(=O)NCC(NC(=O)/C=C/c2ccc(OC)c(OC)c2)C(=O)O)cc1OC` (stereo not given), the TGI in [1] was greater than 100 µM; in [2], greater than 100 µM; in test [3] it was greater than 100 µM; in [4] it was greater than 100 µM; in test [6] it was 0.74 µM; in test [8], greater than 100 µM. For the same molecule, the TGI in test [9], in [10], in test [13], in test [11] and in [12] was greater than 100 µM each time.

For the molecule `CCCCCCC(N)(CCCCCC)C(=O)Nn1c(C)ccc1C`, the TGI in test [1] is greater than 100 µM; in test [2], greater than 100 µM; in test [3] it was greater than 100 µM; in [4], 58.4 µM; in test [5], greater than 100 µM; in [7], greater than 100 µM. Also, the TGI in test [8], in test [9], in test [10], in [13], in test [11] and in test [12] was greater than 100 µM throughout.

In the case of `CSc1nc(=S)[nH]c2n[nH]c(C)c12`, the TGI in [1], in test [2], in test [3], in [4], in test [5] and in test [8] was greater than 100 µM in each case. The TGI in test [9], in test [10], in test [13], in test [11] and in [12] was greater than 100 µM in each case.

In the case of `Cc1ccc(S(=O)(=O)N(c2ccccc2F)C2CCCCC2O)cc1` (stereo not given), the TGI in [1] is greater than 100 µM; in test [2], greater than 100 µM; in test [3] it was 96.7 µM; in [4], greater than 100 µM; in test [5], greater than 100 µM; in [8], 50.1 µM. Besides, the TGI in test [10], in test [13], in [11] and in [12] was greater than 100 µM in each case.

On to `CC(C#N)Nc1ccc(Oc2ccc(C(C)(C)c3ccc(Oc4ccc(NC(C)C#N)cc4)cc3)cc2)cc1` (stereo not given), for which the TGI in [1], in [4], in test [5], in test [6], in test [7] and in [8] was greater than 100 µM throughout. The TGI in [9], in [10], in [13], in test [11] and in test [12] was greater than 100 µM in each case.

Consider `O=c1cc(-c2ccc(O)c(O)c2)oc2cc(OC3OC(CO)C(O)C(O)C3O)cc(O)c12` (stereo not given), for which the TGI in test [1], in test [3], in test [4], in [5], in test [6] and in test [7] was greater than 100 µM throughout. Further, the TGI in [8], in test [9], in test [10], in [13], in [11] and in [12] was greater than 100 µM in each case.

In the case of `CC(=O)NNC=N/C(C#N)=C(\N)C#N`, the TGI in [1], in test [2], in test [3], in test [4], in [5] and in test [7] was greater than 100 µM throughout. The TGI in [8], in test [9], in test [10], in test [13], in [11] and in test [12] was greater than 100 µM in each case.

On to `CN(C(=O)C1=CCCCCC1)c1ccccc1I`, for which the TGI is greater than 100 µM in test [1]; greater than 100 µM in test [2]; greater than 100 µM in [3]; 80.4 µM in [4]; greater than 100 µM in [5]; greater than 100 µM in test [7]. Moreover, the TGI in test [8], in test [9], in test [13], in [11] and in [12] was greater than 100 µM throughout.

Turning to `O=C(/C=C/c1ccc(O)c(O)c1)NC(CO)C(=O)O` (stereo not given), the TGI in test [1], in test [2], in [3], in [4], in test [5] and in test [6] was greater than 100 µM in each case. The TGI in test [8], in test [9], in [10], in test [13], in test [11] and in test [12] was greater than 100 µM throughout.

As for `N#C/C(=C\c1ccc(Cl)cc1)c1nc2ccccc2c(=O)[nH]1`, the TGI was greater than 100 µM in test [1]; greater than 100 µM in [2]; greater than 100 µM in [3]; greater than 100 µM in [4]; greater than 100 µM in [5]; 39.9 µM in [6]. In addition, the TGI in test [7], in [8], in [9], in test [10], in [11] and in test [12] was greater than 100 µM throughout.

Regarding `CC1=NC(=Cc2ccc(Cl)cc2)C(=O)N1n1c(-c2ccccc2)nc2ccccc2c1=O`, the TGI in [1], in [2], in test [3], in test [4], in [5] and in test [7] was greater than 100 µM each time. Moreover, the TGI in test [8] is greater than 100 µM; in test [9] it was greater than 100 µM; in [10], greater than 100 µM; in test [13] it was 96 µM; in [11] it was greater than 100 µM; in test [12] it was greater than 100 µM.

`Oc1cn(-c2ccc(Cl)cc2)nc1-c1nnc(Nc2ccccc2)o1`: the TGI in test [1] is 36.1 µM; in test [3], 42.1 µM; in [4] it was 72.8 µM; in [5], 28 µM; in test [7] it was 32.4 µM; in test [10], 31.4 µM. The figures for the TGI in [13], in test [11] and in test [12] were 27.3 µM, 50.5 µM and 46.1 µM, respectively.

Turning to `CC(C)=CCC/C(C)=C/Cc1cc(/C=C/c2cc(O)c(CC=C(C)C)c(O)c2)cc(O)c1O`, the TGI in test [1] came to 17 µM; in test [3], 26.6 µM; in test [4] it was 7.46 µM; in test [5] it was 11.9 µM; in test [6] it was 15.6 µM; in [7], 6.81 µM. In addition, the TGI came to 12.1 µM in [8]; 11.8 µM in [9]; 23 µM in [10]; 11.2 µM in test [13]; 16.6 µM in test [11]; 2.89 µM in [12].

In the case of `CC(=O)OCC(OC(C)=O)C(OC(C)=O)C(/C=N/N(C(C)=O)S(=O)(=O)c1ccc(/C=C2\NC(=O)NC2=O)cc1)OC(C)=O` (stereo not given), the TGI in [1], in test [2], in [3], in test [4], in test [5] and in test [7] was greater than 100 µM each time. Further, the TGI in [8], in test [9], in test [10], in [13], in [11] and in test [12] was greater than 100 µM in each case.

On to `COc1c(O)cc(/C=C/c2cc(O)cc3c2[C@@]2(C(=O)O3)c3c(O)cc(O)cc3OC2c2cccc(O)c2)cc1O` (stereo not given in full), for which the TGI in test [1], in test [2], in test [3], in [5], in test [6] and in test [7] was greater than 100 µM each time. The TGI was greater than 100 µM in test [8]; 11 µM in test [9]; greater than 100 µM in test [13]; greater than 100 µM in test [11]; greater than 100 µM in [12].

In the case of `CC1CCCc2c(-c3ccc(Cl)cc3)nc(N)c(C#N)c21` (stereo not given), the TGI in test [1] was greater than 100 µM; in test [2] it was greater than 100 µM; in test [3] it was greater than 100 µM; in test [4], 65.8 µM; in test [5] it was greater than 100 µM; in test [7] it was 66.1 µM. Further, the TGI in test [8] is 53.4 µM; in [9], 69.8 µM; in test [10], 66.2 µM; in test [13], 99.4 µM; in [11], greater than 100 µM; in test [12] it was 61.7 µM.

With `CSc1nc(C)cc(Nc2ccc(O)c(CN3CCCCC3)c2)n1`, the TGI in [1] is 49.1 µM; in [3], greater than 100 µM; in test [4], 88.7 µM; in test [5] it was greater than 100 µM; in test [6], greater than 100 µM; in [7] it was greater than 100 µM. The TGI in test [8] is 75.4 µM; in test [9], greater than 100 µM; in test [10] it was 84.3 µM; in [13], greater than 100 µM; in [11] it was greater than 100 µM; in test [12], greater than 100 µM.

As to `CCCOC(=O)c1cc(C(=CCC[C@H]2CC[C@@]3(C)[C@@H](CC[C@@H]4[C@@H]3CC[C@]3(C)[C@@H](C(C)CCCC(C)C)CC[C@@H]43)C2)c2cc(Cl)c(O)c(C(=O)OCCC)c2)cc(Cl)c1O` (stereo not given in full), the TGI in [1], in test [2], in [3], in test [4], in test [5] and in [7] was greater than 50 µM each time. Also, the TGI in test [8], in test [9], in test [10], in test [13] and in [11] was greater than 50 µM in each case.

Consider `Cc1ccc(-c2c(C#N)c(-c3ccc(N(C)C)cc3)c(C#N)c(=O)n2NS(=O)(=O)c2ccccc2)cc1`, for which the TGI was greater than 100 µM in test [1]; 96.3 µM in test [2]; greater than 100 µM in [4]; greater than 100 µM in test [5]; greater than 100 µM in [6]; greater than 100 µM in test [7]. The TGI in test [8] is greater than 100 µM; in [9], 52.8 µM; in test [10], greater than 100 µM; in test [11], greater than 100 µM.
